Results taken from patent US20150299345A1, “ANTIBACTERIAL MONOMERS, ANTIBACTERIAL RESINS AND DENTAL COMPOSITES COMPRISING THE ANTIBACTERIAL RESINS” (UNIVERSITY OF MARYLAND, BALTIMORE, priority 2012, published 2015).
Like-named read-outs stand apart in the source and are kept apart here.

Assays:
[1] = test system: S. mutans (ATCC 700610, UA159); assay: MIC and MBC by serial microdilution assays; assay type: cell-based, Streptococcus mutans; settings: for MBC / MIC: 48 h, triplicate; for antibacterial potency (MIC and MBC) compared with another agent: comparison in words
Experimental: MIC and MBC were measured using S. mutans (ATCC 700610, UA159, American Type Culture, Manassas, Va.). S. mutans is a cariogenic, aerotolerant anaerobic bacterium and the primary causative agent of dental caries (Loesche 1986). MIC and MBC were determined via serial microdilution assays (Imazato S et al. 2006; Huang L et al. 2011). Unpolymerized DMAHM or DMADM monomer was dissolved in brain heart infusion (BHI) broth (BD, Franklin Lakes, N.J.) to give a final concentration of 200 mg/mL. From these starting solutions, serial two fold dilutions were made into 1 mL volumes of BHI broth. 15 μL of stock S. mutans was added to 15 mL of BHI broth with 0.2% sucrose and incubated at 37° C. with 5% CO2. Overnight cultures of S. mutans were adjusted to 2×10^6 CFU/mL with BHI broth, and 50 μL of inocula was added to each well of a 96-well plate containing 50 μL of a series of antibacterial monomer dilution broths. BHI broth with 1×10^6 CFU/mL bacteria suspension without antibacterial agent served as negative control. Chlorhexidine diacetate (CHX) (Sigma, St. Louis, Mo.) served as positive control. The previously-synthesized QADM (Antonucci J M et al. 2012; Cheng L et al. 2012a) served as an antibacterial monomer control. After incubation at 37° C. in 5% CO2 for 48 h, the wells were read for turbidity, referenced by the negative and positive control wells. MIC was determined as the endpoint (the well with the lowest antibacterial agent concentration) where no turbidity could be detected with respect to the controls (Huang L et al. 2011). To determine MBC, an aliquot of 50 μL from each well without turbidity was inoculated on BHI agar plates and incubated at 37° C. in 5% CO2 for 48 h. MBC was determined as the lowest concentration of antibacterial agent that produced no colonies on the plate. The tests were performed in triplicate (Huang L et al. 2011).

[2] = test system: dental plaque microcosm biofilms; assay: Live/dead assay of biofilms (CLSM); assay type: cell-based, human saliva inoculum; settings: 48-h biofilms on composite disks, FIG. 5
Experimental: The dental plaque microcosm biofilm model used human saliva as inoculum. Saliva was collected from a healthy adult donor following a previous study (Cheng L et al. 2012b). The donor had natural dentition without active caries or periopathology, and without the use of antibiotics within the last 3 months. […] Stimulated saliva was collected during parafilm chewing and kept on ice. The saliva was diluted in sterile glycerol to a concentration of 70% saliva and 30% glycerol (Cheng L et al. 2012b), and stored at −80° C. The saliva-glycerol stock was added, with 1:50 final dilution, into the growth medium as inoculum. The growth medium contained mucin (type II, porcine, gastric) at a concentration of 2.5 g/L; bacteriological peptone, 2.0 g/L; tryptone, 2.0 g/L; yeast extract, 1.0 g/L; NaCl, 0.35 g/L, KCl, 0.2 g/L; CaCl2, 0.2 g/L; cysteine hydrochloride, 0.1 g/L; haemin, 0.001 g/L; vitamin K1, 0.0002 g/L, at pH 7 (McBain A J 2009). Composite disks were sterilized in ethylene oxide (Anprolene AN 74i, Andersen, Haw River, N.C.). 1.5 mL of inoculum was added to each well of 24-well plates with a composite disk, and incubated in 5% CO2 at 37° C. for 8 h. […] Live bacteria were stained with Syto 9 to produce a green fluorescence, and bacteria with compromised membranes were stained with propidium iodide to produce a red fluorescence. […]

[3] = test system: Human gingival fibroblasts (HGF); assay: Cytotoxicity of monomers via MTT assay; assay type: cell-based; settings: for cytotoxicity / cell viability compared with BisGMA: human gingival fibroblasts, FIG. 1
Experimental: Human gingival fibroblasts (HGF, ScienCell) were cultured in a fibroblast medium (FM). […] Then, HGF were seeded in 96-well plates at 5,000 cells per well. […] After 4 h, the unreacted dye was removed and 150 μL, of dimethyl sulfoxide was added. Absorbance was measured via the microplate reader at 492 nm. […] Cells were also live/dead stained (Molecular Probes) and examined with fluorescence microscopy (TE2000-S, Nikon) as shown in FIG. 1B.

[4] = unpolymerized monomer in BHI broth

Question: What does the source list for `C=C(C)C(=O)OCC[N+](C)(C)CCOC(=O)C(=C)C.[Br-]` [QADM, bis(2-methacryloyloxy-ethyl) dimethyl-ammonium bromide, reference compound]?
Answer: MBC ([1]; Streptococcus mutans, ATCC700610, unpolymerized monomer in BHI broth, read-out: MBC): 25000 µg/mL; MIC ([1]; Streptococcus mutans, ATCC700610, unpolymerized monomer in BHI broth, read-out: MIC): 12500 µg/mL

Question: What does the source list for `C=C(C)C(=O)OCC[N+](C)(C)CCCCCCCCCCCC.[Br-]` [DMADDM, dimethylamino dodecyl methacrylate]?
Answer: antibacterial potency (MIC and MBC) compared with another agent [1]: more than two orders of magnitude lower than those of MDAHM; MBC [1, 4]: 12.21 µg/mL; MIC [1, 4]: 6.10 µg/mL; antibacterial activity by live/dead staining of biofilms [2]: responsible for the antibacterial activity; fibroblast viability ([3]; at each monomer concentration (0.5-100 μg/mL), 2 d, n=6, FIG. 1): highest fibroblast viability; cytotoxicity / cell viability compared with BisGMA [3]: less cytotoxic

Question: Which MBC [1, 4] does the source give for `CC(=O)O.CC(=O)O.NC(=N\CCCCCC/N=C(N)/N=C(\N)Nc1ccc(Cl)cc1)/N=C(\N)Nc1ccc(Cl)cc1` [CHX, Chlorhexidine diacetate, reference compound] here?
Answer: Its MBC is 3.91 µg/mL.

Question: What about the MIC [1, 4] of the same molecule?
Answer: Its MIC is 1.95 µg/mL.

Question: What does the source list for `C=C(C)C(=O)OCC[N+](C)(C)CCCCCCCCCCCCCCCC.[Br-]` [DMAHDM, dimethylamino hexadecyl methacrylate]?
Answer: antibacterial potency (MIC and MBC) compared with another agent [1]: an order of magnitude more potent than those for chain length 12; MBC [1, 4]: 0.61 µg/mL; MIC [1, 4]: 0.305 µg/mL

Question: How did the “cytotoxicity / cell viability compared with BisGMA” value [3] turn out when `C=C(C)C(=O)OCCCCCCCCCCCC[n+]1ccccc1.[Br-]` [MDPB, reference compound] was run?
Answer: Its value is “less cytotoxic”.

Question: With `C=C(C)C(=O)OCC[N+](C)(C)CCCCCC.[Br-]` [DMAHM] as the molecule, how does the “antibacterial potency (MIC and MBC) compared with another agent” value [1] read?
Answer: Its value is “more potent than the previously-synthesized QADM”.

Question: What about the MBC [1, 4] of the same molecule?
Answer: The MBC was 3130 µg/mL.

Question: What about the MIC [1, 4] of the same molecule?
Answer: Its MIC is 1560 µg/mL.
